Each compound was assayed on MDA-MB-231 (breast) cancer cells (assay: Cell viability (MTT) assay, MDA cells). Settings: 72 hours, MTT based assay.
Protocol: (§1) MDA-MD-231 (breast) and SKOV-3 (ovarian) cancer cells were cultured in RPMI1640 media supplemented with 10% FBS and 100 units/mL of Penicillin and Steptomycin.
(§2) Viability assays were done on a number of cells including MDA-MB-231, SKOV-3, H460, PC3, HCT-116, and SW480 cells. Cells were seeded in 96 well plates at a respective density of 5000 and 2000 cells per well and incubated at 37° C. in presence of 5% CO2 for 24 hours. Selected compounds were diluted into the media at various concentration ranging from 0.01 uM up to 100 uM. Diluted compounds were added onto the MDA-MB-231 cells. For the MDA-MB-231 SKOV3, H460, PC3, HCT-116, and SW480 cells, the compounds were added either alone or in presence of 1-3 ng/ml of TRAIL. After 72 hours cellular viability was evaluated by MTT based assays.
`CN[C@@H](C)C(=O)N[C@@H](CCC(=O)NCCNC(=O)CC[C@H](NC(=O)[C@H](C)NC)C(=O)N1CCC[C@H]1CN(CCc1ccccc1)C(=O)C(F)(F)F)C(=O)N1CCC[C@H]1CN(CCc1ccccc1)C(=O)C(F)(F)F` [Compound 18] showed an EC50 of under 1000 nM.
`CN[C@@H](C)C(=O)N[C@@H](CCC(=O)NCCNC(=O)CC[C@H](NC(=O)[C@H](C)NC)C(=O)N1CCC[C@H]1CN(CCc1ccccc1)C(=O)C(F)(F)F)C(=O)N1CCC[C@H]1CN(CCc1ccccc1)C(=O)C(F)(F)F` [Compound 19] showed an EC50 of under 1000 nM.
Compound `CN[C@@H](C)C(=O)N[C@@H](CCC(=O)NCCNC(=O)CC[C@H](NC(=O)[C@H](C)NC)C(=O)N1CCC[C@H]1CN(CCc1ccccc1)C(=O)C(F)(F)F)C(=O)N1CCC[C@H]1CN(CCc1ccccc1)C(=O)C(F)(F)F` [Compound 20] has an EC50 of under 1000 nM.
In the case of `CN[C@@H](C)C(=O)N[C@@H](CCC(=O)NCCNC(=O)CC[C@H](NC(=O)[C@H](C)NC)C(=O)N1CCC[C@H]1CN(CCc1ccccc1)C(=O)C(F)(F)F)C(=O)N1CCC[C@H]1CN(CCc1ccccc1)C(=O)C(F)(F)F` [Compound 21], the EC50 is reported as under 1000 nM.
Work on `CN[C@@H](C)C(=O)N[C@@H](CCC(=O)NCCNC(=O)CC[C@H](NC(=O)[C@H](C)NC)C(=O)N1CCC[C@H]1CN(CCc1ccccc1)C(=O)C(F)(F)F)C(=O)N1CCC[C@H]1CN(CCc1ccccc1)C(=O)C(F)(F)F` [Compound 22] yielded an EC50 of under 100 nM.
For `CN[C@@H](C)C(=O)N[C@@H](CCC(=O)NCCNC(=O)CC[C@H](NC(=O)[C@H](C)NC)C(=O)N1CCC[C@H]1CN(CCc1ccccc1)C(=O)C(F)(F)F)C(=O)N1CCC[C@H]1CN(CCc1ccccc1)C(=O)C(F)(F)F` [Compound 30], the EC50 was under 100 nM.
Work on `CN[C@@H](C)C(=O)N[C@@H](CCC(=O)NCCNC(=O)CC[C@H](NC(=O)[C@H](C)NC)C(=O)N1CCC[C@H]1CN(CCc1ccccc1)C(=O)C(F)(F)F)C(=O)N1CCC[C@H]1CN(CCc1ccccc1)C(=O)C(F)(F)F` [Compound 31] yielded an EC50 of under 100 nM.

Same assay, conditions: Homo sapiens, MDA-MB-231, 72 h, MTT based assay
`CN[C@@H](C)C(=O)N[C@H](C(=O)N1CCC[C@H]1CN(CCc1ccccc1)C(C)=O)[C@@H](C)OCC#CC#CCO[C@H](C)[C@H](NC(=O)[C@H](C)NC)C(=O)N1CCC[C@H]1CN(CCc1ccccc1)C(C)=O` [Compound 5] showed an EC50 of under 100 nM.
In the case of `CN[C@@H](C)C(=O)N[C@H](C(=O)N1CCC[C@H]1CN(CCc1ccccc1)C(=O)c1ccc(OC)cc1)[C@@H](C)OCC#CC#CCO[C@H](C)[C@H](NC(=O)[C@H](C)NC)C(=O)N1CCC[C@H]1CN(CCc1ccccc1)C(=O)c1ccc(OC)cc1` [Compound 9], the EC50 is reported as under 100 nM.
`CN[C@@H](C)C(=O)N[C@H](C(=O)N1CCC[C@H]1CN(CCc1ccccc1)C(=O)CNCc1ccccc1)[C@@H](C)OCC#CC#CCO[C@H](C)[C@H](NC(=O)[C@H](C)NC)C(=O)N1CCC[C@H]1CN(CCc1ccccc1)C(=O)CNCc1ccccc1` [Compound 10] was tested, and the EC50 was under 100 nM.
In the case of `CN[C@@H](C)C(=O)NC(CCCNC(=O)c1ccc(C(=O)NCCC[C@H](NC(=O)[C@H](C)NC)C(=O)N2CCC[C@H]2C(=O)N[C@@H]2CCCc3ccccc32)cc1)C(=O)N1CCC[C@H]1C(=O)N[C@@H]1CCCc2ccccc21` (stereo partly drawn) [Compound 15], the EC50 is reported as under 100 nM.
`CN[C@@H](C)C(=O)N[C@@H](CCCNC(=O)NCCC[C@H](NC(=O)[C@H](C)NC)C(=O)N1CCC[C@H]1C(=O)N[C@@H]1CCCc2ccccc21)C(=O)N1CCC[C@H]1C(=O)N[C@@H]1CCCc2ccccc21` [Compound 16] was tested, and the EC50 was under 100 nM.
For `CN[C@@H](C)C(=O)N[C@@H](CCC(=O)NCc1ccc(CNC(=O)CC[C@H](NC(=O)[C@H](C)NC)C(=O)N2CCC[C@H]2CN(CCc2ccccc2)C(=O)C(F)(F)F)cc1)C(=O)N1CCC[C@H]1CN(CCc1ccccc1)C(=O)C(F)(F)F` [Compound 17], the EC50 was under 1000 nM.
Compound `CN[C@@H](C)C(=O)N[C@@H](COCC#CC#CCOC[C@H](NC(=O)[C@H](C)NC)C(=O)N1CCC[C@H]1CN(CCc1ccccc1)C(=O)C(F)(F)F)C(=O)N1CCC[C@H]1CN(CCc1ccccc1)C(=O)C(F)(F)F` [Compound 24] has an EC50 of under 100 nM.
Work on `CN[C@@H](C)C(=O)N[C@H](C(=O)N1CCC[C@H]1C(=O)N[C@@H]1CCCc2ccccc21)[C@@H](C)OCCCCCCO[C@H](C)[C@H](NC(=O)[C@H](C)NC)C(=O)N1CCC[C@H]1C(=O)N[C@@H]1CCCc2ccccc21` [Compound 25] yielded an EC50 of under 100 nM.
With `CN[C@@H](C)C(=O)N[C@H](C(=O)N1CCC[C@H]1CN(CCc1ccccc1)C(=O)C(C)C)[C@@H](C)OCC#CC#CCO[C@H](C)[C@H](NC(=O)[C@H](C)NC)C(=O)N1CCC[C@H]1CN(CCc1ccccc1)C(=O)C(C)C` [Compound 26] the EC50 was under 100 nM.
With `CNCC(=O)N(CCc1ccccc1)C[C@@H]1CCCN1C(=O)[C@@H](NC(=O)[C@H](C)NC)[C@@H](C)OCC#CC#CCO[C@H](C)[C@H](NC(=O)[C@H](C)NC)C(=O)N1CCC[C@H]1CN(CCc1ccccc1)C(=O)CNC` [Compound 27] the EC50 was under 1000 nM.
With `CN[C@@H](C)C(=O)N[C@H](C(=O)N1CCC[C@H]1CN(CCc1ccccc1)C(=O)C(F)F)[C@@H](C)OCC#CC#CCO[C@H](C)[C@H](NC(=O)[C@H](C)NC)C(=O)N1CCC[C@H]1CN(CCc1ccccc1)C(=O)C(F)F` [Compound 28] the EC50 was under 100 nM.
In the case of `CN[C@@H](C)C(=O)N[C@@H](CC(=O)NCCNC(=O)C[C@H](NC(=O)[C@H](C)NC)C(=O)N1CCC[C@H]1CN(CCc1ccccc1)C(=O)C(F)(F)F)C(=O)N1CCC[C@H]1CN(CCc1ccccc1)C(=O)C(F)(F)F` [Compound 35], the EC50 is reported as under 1000 nM.

Same assay, conditions: Homo sapiens, MDA-MB-231; 72 hours, MTT based assay
`CN[C@@H](C)C(=O)N[C@H](C(=O)N1CCC[C@H]1CN(CCc1ccccc1)C(=O)CF)[C@@H](C)OCC#CC#CCO[C@H](C)[C@H](NC(=O)[C@H](C)NC)C(=O)N1CCC[C@H]1CN(CCc1ccccc1)C(=O)CF` [Compound 29] showed an EC50 of under 100 nM.

These compounds were tested on SKOV-3 (ovarian) cancer cells (assay: Cell viability (MTT) assay, SKOV3 cells). Settings: 72 hours, MTT based assay; compounds added either alone or in presence of 1-3 ng/ml of TRAIL.
Protocol: as §1, §2
Work on `CN[C@@H](C)C(=O)N[C@@H](CC(=O)NCCNC(=O)C[C@H](NC(=O)[C@H](C)NC)C(=O)N1CCC[C@H]1CN(CCc1ccccc1)C(=O)C(F)(F)F)C(=O)N1CCC[C@H]1CN(CCc1ccccc1)C(=O)C(F)(F)F` [Compound 32] yielded an EC50 of over 1000 nM.
Work on `CN[C@@H](C)C(=O)N[C@H](C(=O)N1CCC[C@H]1CN(CCc1ccccc1)C(=O)C(F)(F)F)[C@@H](C)OCCCCCCO[C@H](C)[C@H](NC(=O)[C@H](C)NC)C(=O)N1CCC[C@H]1CN(CCc1ccccc1)C(=O)C(F)(F)F` [Compound 36] yielded an EC50 of under 100 nM.
`CN[C@@H](C)C(=O)N[C@H](C(=O)N1CCC[C@H]1CN(CCc1ccccc1)S(C)(=O)=O)[C@@H](C)OCCCCCCO[C@H](C)[C@H](NC(=O)[C@H](C)NC)C(=O)N1CCC[C@H]1CN(CCc1ccccc1)S(C)(=O)=O` [Compound 37] showed an EC50 of under 100 nM.
`CN[C@@H](C)C(=O)NC(CCCNC(=O)c1ccc(C(=O)NCCC[C@H](NC(=O)[C@H](C)NC)C(=O)N2CCC[C@H]2C(=O)N[C@@H]2CCCc3ccccc32)cc1)C(=O)N1CCC[C@H]1CN(CCc1ccccc1)C(=O)C(F)(F)F` (stereo partly drawn) [Compound 38] showed an EC50 of under 100 nM.
In the case of `CN[C@@H](C)C(=O)NC(CCCNC(=O)c1ccc(C(=O)NCCC[C@H](NC(=O)[C@H](C)NC)C(=O)N2CCC[C@H]2CN(CCc2ccccc2)C(=O)C(F)(F)F)cc1)C(=O)N1CCC[C@H]1CN(CCc1ccccc1)C(=O)C(F)(F)F` (stereo partly drawn) [Compound 39], the EC50 is reported as under 1000 nM.
In the case of `CN[C@@H](C)C(=O)NC(CCCNC(=O)CCC(=O)NCCC[C@H](NC(=O)[C@H](C)NC)C(=O)N1CCC[C@H]1CN(CCc1ccccc1)S(=O)(=O)c1ccc(F)cc1)C(=O)N1CCC[C@H]1CN(CCc1ccccc1)S(=O)(=O)c1ccc(F)cc1` (stereo partly drawn) [Compound 40], the EC50 is reported as under 1000 nM.
`CN[C@@H](C)C(=O)N[C@@H](CCCNC(=O)C(=O)NCCC[C@H](NC(=O)[C@H](C)NC)C(=O)N1CCC[C@H]1CN(CCc1ccccc1)S(=O)(=O)c1ccc(F)cc1)C(=O)N1CCC[C@H]1CN(CCc1ccccc1)S(=O)(=O)c1ccc(F)cc1` [Compound 41] gave an EC50 of under 1000 nM.
`CN[C@@H](C)C(=O)N[C@@H](CCCNC(=O)NCCC[C@H](NC(=O)[C@H](C)NC)C(=O)N1CCC[C@H]1CN(CCc1ccccc1)S(=O)(=O)c1ccc(F)cc1)C(=O)N1CCC[C@H]1CN(CCc1ccccc1)S(=O)(=O)c1ccc(F)cc1` [Compound 42] gave an EC50 of over 1000 nM.
For `CN[C@@H](C)C(=O)N[C@@H](CCCNC(=O)CCCC(=O)NCCC[C@H](NC(=O)[C@H](C)NC)C(=O)N1CCC[C@H]1CN(CCc1ccccc1)S(=O)(=O)c1ccc(F)cc1)C(=O)N1CCC[C@H]1CN(CCc1ccccc1)S(=O)(=O)c1ccc(F)cc1` [Compound 43], the EC50 was under 1000 nM.
`CN[C@@H](C)C(=O)N[C@@H](CCCNC(=O)CCCCC(=O)NCCC[C@H](NC(=O)[C@H](C)NC)C(=O)N1CCC[C@H]1CN(CCc1ccccc1)S(=O)(=O)c1ccc(F)cc1)C(=O)N1CCC[C@H]1CN(CCc1ccccc1)S(=O)(=O)c1ccc(F)cc1` [Compound 44] was tested, and the EC50 was under 1000 nM.
With `CN[C@@H](C)C(=O)N[C@@H](CCCNC(=O)c1ccc(C(=O)NCCC[C@H](NC(=O)[C@H](C)NC)C(=O)N2CCC[C@H]2CN(CCc2ccccc2)S(=O)(=O)c2ccc(F)cc2)cc1)C(=O)N1CCC[C@H]1CN(CCc1ccccc1)S(=O)(=O)c1ccc(F)cc1` [Compound 45] the EC50 was under 1000 nM.
Compound `CN[C@@H](C)C(=O)N[C@@H](CCCCNC(=O)C(=O)NCCCC[C@H](NC(=O)[C@H](C)NC)C(=O)N1CCC[C@H]1CN(CCc1ccccc1)C(=O)C(F)(F)F)C(=O)N1CCC[C@H]1CN(CCc1ccccc1)C(=O)C(F)(F)F` [Compound 46] has an EC50 of under 100 nM.
`CN[C@@H](C)C(=O)N[C@@H](CCCCNC(=O)NCCCC[C@H](NC(=O)[C@H](C)NC)C(=O)N1CCC[C@H]1CN(CCc1ccccc1)C(=O)C(F)(F)F)C(=O)N1CCC[C@H]1CN(CCc1ccccc1)C(=O)C(F)(F)F` [Compound 47] was tested, and the EC50 was under 1000 nM.

Reference: patent US8063095B2, “IAP BIR domain binding compounds” (Pharmascience Inc., priority 2005, dated 2011)
